Laboratory results: US6562818B1, “Irreversible inhibitors of tyrosine kinases” (Warner-Lambert Company, priority 1997, dated 2003)
Where a name gives a salt, the structure may show the parent alone.

Assays:
EGFR [1] = target: T1, EGFR (Homo sapiens, UniProt P00533); conditions: read-out: EGFR (autophosphorlyation) IC50; A431 cells, 15 minutes compound, stimulated with 100 ng/mL EGF
Experimental: (§1) Extracts were made by lysing the monolayers in 0.2 mL of boiling Laemlli buffer (2% sodium dodecyl sulfate, 5% beta-mercaptoethanol, 10% glycerol and 50 mM tris[hydroxymethyl]aminomethane (Tris), pH 6.8), and the lysates were heated to 100° C. for 5 minutes. Proteins in the lysate were separated by polyacrylamide gel electrophoresis and electrophoretically transferred to nitrocellulose. The membrane was washed once in 10 mM Tris, pH 7.2, 150 mM NaCl, 0.01% Azide (TNA), and blocked overnight in TNA containing 5% bovine serum albumin and 1% ovalbumin. The membrane was blotted for 2 hours with antiphosphotyrosine antibody (UBI, 1 μg/mL in blocking buffer) and then washed twice in TNA, once in TNA containing 0.05% Tween-20 detergent and 0.05% nonidet P-40 detergent and twice in TNA. […] Band intensities were determined with a Molecular Dynamics laser densitometer.
Duplicate sets of cells were treated with a range of concentrations of the designated compound to be tested as an inhibitor for 15 minutes. The cells were then stimulated with 100 ng/mL of EGF for 5 minutes and extracts made as described under the Western Blotting Procedure.

EGFR [2] = target: T1, EGFR; conditions: A431 cells, 2 μM compound
Experimental: as §1

[3] = target: Human EGF receptor tyrosine kinase (Homo sapiens, UniProt P00533); conditions: read-out: EGFR (isolated enzyme) IC50; isolated enzyme from A431 cells, 10 μM ATP
Experimental: Human EGF receptor tyrosine kinase was isolated from A431 human epidermoid carcinoma cells by the following method. Cells were grown in roller bottles in dMEM/F12 media (Gibco/BRL) containing 10% fetal calf serum. Approximately 10^9 cells were lysed in 2 volumes of buffer containing 20 mM N-[2-hydroxyethyl]piperazine-N′-[2-ethane sulfonic acid](Hepes), pH 7.4, 5 mM ethylene glycol-bis(β-aminoethyl ether) N,N,N′,N′-tetraacetic acid (EGTA), 1% Triton X-100, 10% glycerol, 0.1 mM sodium orthovanadate, 5 mM sodium fluoride, 4 mM pyrophosphate, 4 mM benzamide, 1 mM dithiothreitol (DTT), 80 μg/mL aprotinin, 40 μg/mL leupeptin, and 1 mM phenylmethyl sulfonyl fluoride (PMSF). After centrifugation at 25,000×g for 10 minutes, the supernatant was applied to a fast Q sepharose column (Pharmacia Biotech., Inc., Piscataway, N.J.) and eluted with a linear gradient from 0.1 M NaCl to 0.4 M NaCl in 50 mM Hepes, 10% glycerol, pH 7.4. Enzyme active fractions were pooled, divided into aliquots, and stored at −100° C.
Enzyme assays for IC50 determinations were performed in 96-well filter plates (Millipore MADVN6550, Millipore, Bedford, Mass). […] The wells are then washed 5 times with 0.2 mL of 10% TCA and ^32P incorporation determined with a Wallac beta plate counter (Wallac, Inc., Gaithersburg, Pa.).

ErbB-2 = ErbB-2 (Homo sapiens, UniProt P04626); assay: ErbB-2 autophosphorylation assay; format: cell-based; conditions: read-out: ErbB-2 (autophosphorlyation) IC50
Chain of ErbB-2 (P04626 23-1255, species assumed): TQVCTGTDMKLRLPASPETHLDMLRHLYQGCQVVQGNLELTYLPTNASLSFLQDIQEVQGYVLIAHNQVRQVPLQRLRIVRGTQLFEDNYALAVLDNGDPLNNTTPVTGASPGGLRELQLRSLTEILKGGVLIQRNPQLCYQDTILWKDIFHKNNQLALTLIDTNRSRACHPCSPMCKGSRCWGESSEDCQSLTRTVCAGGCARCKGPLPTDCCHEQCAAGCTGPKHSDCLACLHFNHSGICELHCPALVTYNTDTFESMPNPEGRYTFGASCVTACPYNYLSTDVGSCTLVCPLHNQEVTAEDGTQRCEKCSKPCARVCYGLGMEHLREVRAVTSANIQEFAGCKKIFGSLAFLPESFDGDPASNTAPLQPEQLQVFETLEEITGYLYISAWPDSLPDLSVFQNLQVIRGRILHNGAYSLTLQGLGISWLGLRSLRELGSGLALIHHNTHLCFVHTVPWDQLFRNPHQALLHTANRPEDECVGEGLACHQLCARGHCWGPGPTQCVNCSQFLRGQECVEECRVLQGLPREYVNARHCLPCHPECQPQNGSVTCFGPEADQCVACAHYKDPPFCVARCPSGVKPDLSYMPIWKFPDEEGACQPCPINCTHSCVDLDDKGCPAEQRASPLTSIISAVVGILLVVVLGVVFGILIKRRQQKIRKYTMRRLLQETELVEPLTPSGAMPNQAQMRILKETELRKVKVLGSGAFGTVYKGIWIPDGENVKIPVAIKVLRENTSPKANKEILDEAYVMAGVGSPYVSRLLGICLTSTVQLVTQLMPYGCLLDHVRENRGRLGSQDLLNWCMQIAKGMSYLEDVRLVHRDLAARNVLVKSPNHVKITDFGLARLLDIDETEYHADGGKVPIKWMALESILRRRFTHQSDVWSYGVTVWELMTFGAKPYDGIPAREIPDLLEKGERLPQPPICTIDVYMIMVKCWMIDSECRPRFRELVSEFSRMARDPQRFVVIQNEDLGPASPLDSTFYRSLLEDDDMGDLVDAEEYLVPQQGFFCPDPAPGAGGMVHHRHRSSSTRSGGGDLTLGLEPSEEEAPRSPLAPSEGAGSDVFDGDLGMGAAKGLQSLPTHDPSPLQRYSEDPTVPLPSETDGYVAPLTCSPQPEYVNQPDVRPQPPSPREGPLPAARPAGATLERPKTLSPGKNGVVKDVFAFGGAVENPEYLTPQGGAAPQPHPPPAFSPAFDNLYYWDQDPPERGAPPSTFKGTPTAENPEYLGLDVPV

T1 sequence (P00533 25-1210 limits assumed): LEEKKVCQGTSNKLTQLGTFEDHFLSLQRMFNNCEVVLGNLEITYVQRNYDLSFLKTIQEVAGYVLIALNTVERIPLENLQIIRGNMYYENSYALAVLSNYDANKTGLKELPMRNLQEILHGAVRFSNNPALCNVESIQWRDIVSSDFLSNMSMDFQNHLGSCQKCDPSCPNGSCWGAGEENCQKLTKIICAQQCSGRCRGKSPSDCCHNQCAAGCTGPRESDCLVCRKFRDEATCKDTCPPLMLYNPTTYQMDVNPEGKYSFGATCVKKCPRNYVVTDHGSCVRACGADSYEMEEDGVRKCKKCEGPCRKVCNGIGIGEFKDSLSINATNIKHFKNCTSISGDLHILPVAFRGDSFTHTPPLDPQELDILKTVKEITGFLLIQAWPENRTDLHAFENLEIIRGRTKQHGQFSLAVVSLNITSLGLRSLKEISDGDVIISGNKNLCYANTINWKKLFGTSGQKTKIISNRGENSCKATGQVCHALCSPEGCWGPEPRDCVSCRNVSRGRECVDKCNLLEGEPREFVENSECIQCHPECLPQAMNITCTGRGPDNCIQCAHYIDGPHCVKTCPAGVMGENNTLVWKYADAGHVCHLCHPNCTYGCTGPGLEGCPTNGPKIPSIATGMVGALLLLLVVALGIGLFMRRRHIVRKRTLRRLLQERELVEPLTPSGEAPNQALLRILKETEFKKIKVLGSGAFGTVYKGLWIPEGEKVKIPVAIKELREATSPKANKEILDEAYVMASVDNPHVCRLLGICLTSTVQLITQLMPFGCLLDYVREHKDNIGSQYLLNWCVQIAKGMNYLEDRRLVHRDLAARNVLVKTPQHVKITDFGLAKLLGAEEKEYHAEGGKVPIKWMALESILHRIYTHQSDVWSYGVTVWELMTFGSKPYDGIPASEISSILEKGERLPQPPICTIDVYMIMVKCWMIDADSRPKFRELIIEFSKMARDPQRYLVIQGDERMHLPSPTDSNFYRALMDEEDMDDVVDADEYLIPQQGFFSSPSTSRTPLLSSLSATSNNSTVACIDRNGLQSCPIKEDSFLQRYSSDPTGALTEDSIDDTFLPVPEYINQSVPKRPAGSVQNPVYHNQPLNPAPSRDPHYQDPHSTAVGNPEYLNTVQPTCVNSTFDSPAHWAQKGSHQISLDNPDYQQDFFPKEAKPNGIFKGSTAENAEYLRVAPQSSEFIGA
Chain of Human EGF receptor tyrosine kinase (P00533 25-1210 limits assumed): as above

| Compound | melting point | IC50 (EGFR [1]) | % EGFR enzyme activity after 8 hours washoff (EGFR [2]) | IC50 [3] | IC50 (ErbB-2) |
| --- | --- | --- | --- | --- | --- |
| C=CC(=O)Nc1ccc2ncnc(Nc3ccc(Oc4ccccc4)cc3)c2c1 (as salt: salt) [Example 1, N-(4-[4-Phenoxyanilino]quinazolin-6-yl)acrylamide] | 185 to 191 °C |  |  |  |  |
| C=CC(=O)Nc1ccc2ncnc(Nc3ccc(OCc4ccccc4)cc3)c2c1 (as salt: salt) [Example 2, N-(4-[4-Benzyloxyanilino]quinazolin-6-yl)acrylamide] | 227 to 229 °C |  |  |  |  |
| C=CC(=O)Nc1ccc2ncnc(Nc3ccc(Oc4ccccc4)cc3)c2c1 [Example 1, N-(4-[4-Phenoxyanilino]quinazolin-6-yl)acrylamide] |  | 4.8 nM | 0% | 5.8 nM |  |
| C=CC(=O)Nc1ccc2ncnc(Nc3ccc(OCc4ccccc4)cc3)c2c1 [Example 2, N-(4-[4-Benzyloxyanilino]quinazolin-6-yl)acrylamide] |  | 4.2 nM | 0% | 3.6 nM | 7.6 nM |
